Test results reported in PubChem BioAssay AID2127 (Sanford-Burnham Center for Chemical Genomics, 2009).
The source made the active and inactive calls.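 Rule for the calls: active = half-maximal inhibitory concentration below a set limit; inactive = the rest.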

molecular target: E3 ubiquitin-protein ligase SIAH1 (Homo sapiens) (UniProt Q8IUQ4); test: Siah-1 peptide-binding antagonists, alternate label, dose response, artefact control for Siah-1 antagonist project, biochemical, fluorescence polarization, fluorescein-plectin (AID 2127); settings: Siah-1/fluorescein-plectin binding

Row | Structure (SMILES) | IC50
1 | O=C(N/N=C/c1ccc(OC(=O)c2cccs2)cc1)c1cccc(F)c1 | > 200 µM (inactive)
2 | O=C(CSc1ccc(Br)c2cccc(Cl)c12)Nc1ccc(S(=O)(=O)Nc2nccs2)cc1 | > 200 µM (inactive)
3 | CC1(C)OC(C)(C)/C(=C/Nc2ccc(O)cc2)C1=O | > 200 µM (inactive)
4 | Cc1ccc(C(=O)NC2CC3CCCC(C2)N3C(=O)NC2CCCCC2)cc1 (centres undefined) | > 200 µM (inactive)
5 | COCCCNc1c2c3c(cccc3[nH]c1=O)C(=O)c1ccccc1-2 | > 200 µM (inactive)
6 | CC(=O)Nc1ccc(N=Cc2c(O)c(C(=O)Nc3ccccc3)cc3ccccc23)cc1 | 4.98 µM
7 | O=C(Nc1ccc(Br)cc1)c1ccc(N2C(=O)C3CC=CCC3C2=O)cc1 (centres undefined) | > 200 µM (inactive)
8 | CCOc1cc(/C=C(\C#N)C(=O)Nc2ccccc2C(=O)O)ccc1OC(=O)c1ccc(C)cc1 | > 200 µM (inactive)
9 | COc1cc(CNc2ccc(O)cc2)cc(Br)c1OCc1ccccc1F | > 200 µM (inactive)
10 | NS(=O)(=O)c1ccc(NC(=O)c2cccc(N3C(=O)c4ccccc4C3=O)c2)cc1 | > 200 µM (inactive)
11 | O=C(Nc1ccc(Cl)cc1)OCc1cn(-c2ccccc2)nn1 | > 200 µM (inactive)
12 | C[N+]1(CCNC(=O)/C=N/O)CCCCC1 | > 200 µM (inactive)
13 | Nc1ccc(S(=O)(=O)Nc2ccc(S(N)(=O)=O)cc2)cc1 | > 200 µM (inactive)
14 | Cc1ccc2c(c1)N(CC(=O)NCCc1ccc(Cl)cc1)C(=O)c1cccnc1O2 | > 200 µM (inactive)
15 | COC(=O)C1CC(=O)N(c2ccc(OCc3ccccc3Cl)cc2)C1 (centres undefined) | > 200 µM (inactive)
16 | Oc1c(Br)cc(Br)cc1CNc1ccc(F)cc1 | > 200 µM (inactive)
17 | CCOC(=O)c1c(C)[nH]c2c1-c1ccccc1C(=O)C2=O | > 200 µM (inactive)
18 | O=C(Nc1ccccc1N1CCCCC1)c1ccc(-c2cccc(Cl)c2)o1 | > 200 µM (inactive)
19 | O=C(O)CCCNc1cc(N2CCN(C(=O)c3ccco3)CC2)c2noc3c2c1C(=O)c1ccccc1-3 | 10.9 µM
20 | CSc1n[nH]c(NCc2ccc(Cl)cc2)n1 | > 200 µM (inactive)
21 | CC1(C)Cc2c(sc(/N=C/N3CCCCCC3)c2C#N)C(C)(C)N1 | > 200 µM (inactive)
22 | COc1cc(/C=C2/SC(=S)N(Cc3ccccc3)C2=O)cc(Cl)c1O | > 200 µM (inactive)
23 | C=C(C)Cn1c(N2CCN(CC)CC2)nc2c1c(=O)[nH]c(=O)n2C | > 200 µM (inactive)
24 | Cc1coc2c(C)c3oc(=O)c(CCC(=O)N[C@@H](C)C(=O)N[C@@H](Cc4ccccc4)C(=O)O)c(C)c3cc12 | > 200 µM (inactive)

Row | Structure (SMILES) | IC50
25 | Nc1ccc(O)c2c1C(=O)c1ccccc1C2=O | 5.75 µM
26 | COC(=O)c1cc(NC(=O)c2ccccc2)c(=O)oc1/C=C/Nc1ccc(Oc2ccccc2)cc1 | > 200 µM (inactive)
27 | CCn1c(O)c(C=Nc2ccc(N3CCOCC3)cc2)c(=O)n(CC)c1=S | 13.9 µM
28 | COC(=O)c1ccc2c(c1)C(C)(C)C(/C=C/c1ccccc1O)=[N+]2C | > 200 µM (inactive)
29 | CCCCn1c(NC(=O)c2ccc(Br)o2)c(C(=O)OCC)c2nc3ccccc3nc21 | > 200 µM (inactive)
30 | CC1=CC(C)(C)N2C(=O)C(=Nc3ccc(O)cc3)c3cccc1c32 | > 200 µM (inactive)
31 | O=C(Nc1ccc(Cl)cc1)c1ccc(S(=O)(=O)N2CCOCC2)cc1 | > 200 µM (inactive)
32 | CCc1nnc(NS(=O)(=O)c2ccc(NC(=S)NC(=O)/C=C/c3ccc(C(C)C)cc3)cc2)s1 | > 200 µM (inactive)
33 | O=C(Nc1ccc(Oc2ccsc2C(=O)O)cc1)c1ccccc1F | > 200 µM (inactive)
34 | Cc1cc2cc(CNC(=O)c3ccc(S(=O)(=O)N4CCCCC4)cc3)ccc2n1C | inactive
35 | O=C(Nc1cccc(Oc2ccc(C(=O)O)c(C(=O)O)c2)c1)c1ccc(-c2ccccc2)cc1 | > 200 µM (inactive)
36 | O=S(=O)(Nc1cc2nc3ccccc3nc2n1Cc1ccccc1)c1ccc(Cl)cc1 | > 200 µM (inactive)
37 | Cc1ccccc1-c1nc2c3ccccc3nc(=S)n2[nH]1 | > 200 µM (inactive)
38 | O=c1ccc2c(-c3ccccc3)c3ccc(O)cc3oc-2c1 | > 200 µM (inactive)
39 | CC1=C(C#N)c2nc(N)c(C#N)c(C)c2/C1=C\c1ccc(-c2ccccc2C(=O)O)o1 | > 200 µM (inactive)
40 | COC/C=C/C1=CC2=CC(=O)C(C)(OC(=O)c3ccco3)C(=O)C2=CO1 (centres undefined) | > 200 µM (inactive)
41 | NS(=O)(=O)c1ccc(NS(=O)(=O)c2ccc(NC(=O)c3ccc(-c4ccccc4)cc3)cc2)cc1 | > 200 µM (inactive)
42 | COC(=O)c1c(C(=O)OC)c2cccc3cc(-c4ccccc4)c4ccc1c4n32 | inactive
43 | CCCCNc1c2c3c(cccc3n(C)c1=O)C(=O)c1ccccc1-2 | > 200 µM (inactive)
44 | CN(C)CCOC(=O)CCc1ccccc1 | > 200 µM (inactive)
45 | O=C(Cn1cnc2scc(-c3ccccc3)c2c1=O)NCc1ccco1 | > 200 µM (inactive)
46 | Nc1c(C(=O)NCc2ccco2)c2nc3ccccc3nc2n1Cc1ccccc1 | > 200 µM (inactive)
47 | CC[n+]1c(/C=C/N(C)c2ccccc2)sc2ccc(Cl)cc21 | > 200 µM (inactive)
48 | Cc1cc(C)nc(N=Nc2c(O)n(Cc3ccc(Cl)cc3)c3ccccc23)n1 | > 200 µM (inactive)

Row | Structure (SMILES) | IC50
49 | O=C(O)CCCCN1C(=O)/C(=C\c2ccc(OCc3ccccc3)c(OCc3ccccc3)c2)SC1=S | > 200 µM (inactive)
50 | O=C(NCc1ccc(Cl)cc1)c1cc(-c2cccs2)on1 | > 200 µM (inactive)
51 | Cc1ccc(S(=O)(=O)NN=C2C3CC4CC(C3)CC2C4)cc1[N+](=O)[O-] | > 200 µM (inactive)
52 | N#CC1C=Cc2ccccc2N1C(=O)c1ccccc1 (centres undefined) | > 200 µM (inactive)
53 | CCOC(=O)C1(C)C=C(Nc2ccc(O)cc2)C(=O)N1c1ccc(O)cc1 (centres undefined) | > 200 µM (inactive)
54 | COc1ccc(-c2cnnn2-c2ccc(N)cc2)cc1OC | > 200 µM (inactive)
55 | CN1/C(=C\C=C\C2=[N+](C)c3ccc4ccccc4c3C2(C)C)C(C)(C)c2ccccc21 | > 200 µM (inactive)
56 | O=C(CC1Nc2cccc3cccc(c23)NC1=O)Nc1ccccc1 (centres undefined) | > 200 µM (inactive)
57 | CCC(C)N1C(=O)/C(=C/c2c(NCCCOC(C)C)nc3c(C)cccn3c2=O)SC1=S (centres undefined) | 5.66 µM
58 | CCCCn1c(NS(=O)(=O)c2ccccc2)c(S(=O)(=O)c2ccc(C)cc2)c2nc3ccccc3nc21 | > 200 µM (inactive)
59 | COC(=O)C1C=C2c3cccc4[nH]cc(c34)CC2N(C)C1 (centres undefined) | 6.23 µM
60 | O=C(/C=C/c1ccco1)OCc1nnc(-c2ccccc2)o1 | > 200 µM (inactive)
61 | Fc1ccc(/C=N/NC(=S)Nc2cccnc2)cc1F | > 200 µM (inactive)
62 | CC(=O)c1ccc(S(=O)(=O)Nc2ccc(-c3ccc4nnc(C)n4n3)cc2)cc1 | > 200 µM (inactive)
63 | Cc1ccc(S(=O)(=O)N2CCC(=O)N(C(COCc3cccc(C)c3)Cc3ccccc3)CC2)cc1 (centres undefined) | > 200 µM (inactive)
64 | C=CCc1cccc2cc(C(=O)Nc3ccc(CC(=O)O)cc3)c(=O)oc12 | > 200 µM (inactive)
65 | O=C(CCn1ccc2ccccc21)NC1CCCc2ccccc21 (centres undefined) | > 200 µM (inactive)
66 | C[C@]12CCC3C(CC=C4C[C@@H](O)CC[C@@]43C)C1CCC2[C@]1(C)CCC(=O)O1 (some centres undefined) | > 200 µM (inactive)
67 | O=C(NCc1c(F)cccc1F)c1cc(COc2c(F)cccc2F)on1 | > 200 µM (inactive)
68 | Cc1cc(C)c(C#N)c(Nc2ccccc2C)n1 | > 200 µM (inactive)
69 | Oc1ccc(N=Cc2ccc(OCc3ccccc3)cc2)cc1 | > 200 µM (inactive)
70 | c1ccc(C(c2ccccc2)N2CCN(C(c3ccccn3)c3nnnn3C3CCCC3)CC2)cc1 (centres undefined) | > 200 µM (inactive)
71 | CC(C)(C)c1ccc(C(CC(=O)O)NC(=O)Cc2ccc(F)cc2)cc1 (centres undefined) | > 200 µM (inactive)
72 | CC(NC(=O)Nc1ccc(O)cc1)(C(F)(F)F)C(F)(F)F | > 200 µM (inactive)

Row | Structure (SMILES) | IC50
73 | O=C(Nc1cc([N+](=O)[O-])ccc1N1CCOCC1)c1cccs1 | > 200 µM (inactive)
74 | CC(C)(C)c1cc(-c2csc(Nc3ccccc3)[n+]2Cc2ccc(C(=O)O)cc2)cc(C(C)(C)C)c1O | > 200 µM (inactive)
75 | COc1cccc2cc(C(=O)N3CCc4ccccc43)c(=O)oc12 | > 200 µM (inactive)
76 | O=c1[nH]n(-c2ccc([N+](=O)[O-])cc2)c(=O)c2ccccc12 | > 200 µM (inactive)
77 | COCCOC(=O)c1sc(=S)n(CCOC)c1N | 15.3 µM
78 | Cc1c(Cc2ccccc2)c(=O)oc2c(C)c(OCC(=O)N[C@@H](Cc3ccccc3)C(=O)O)ccc12 | > 200 µM (inactive)
79 | COCCCn1c(N)c(C(=O)NCc2ccco2)c2nc3ccccc3nc21 | > 200 µM (inactive)
80 | CC1CCN(C(=O)C2CCC(C)(C(=O)O)C2(C)C)CC1 (centres undefined) | > 200 µM (inactive)
81 | CCN(CC)CCOC(=O)c1ccc(N/C=C(/C#N)c2nc(-c3ccc(OC)c(OC)c3)cs2)cc1 | > 200 µM (inactive)
82 | O=C(Nc1ccc(S(=O)(=O)N2CCOCC2)cc1)c1ccc(=O)[nH]c1 | > 200 µM (inactive)
83 | O=C(N/N=C/c1cccc(Br)c1)c1ccc(Br)cc1 | > 200 µM (inactive)
84 | CC1CCN(S(=O)(=O)c2ccc3c(c2)c(=O)c(C(=O)NCc2ccccc2Cl)cn3C)CC1 | > 200 µM (inactive)
85 | O=C(O)CCN1C(=O)/C(=C/c2cn(-c3ccccc3)nc2-c2cccs2)SC1=S | > 200 µM (inactive)
86 | COc1cc(/C=C(\C#N)c2nc3ccccc3[nH]2)ccc1OC(=O)c1ccco1 | > 200 µM (inactive)
87 | CCOc1ccccc1CNc1ccc(O)cc1 | > 200 µM (inactive)
88 | COc1ccc(CNC(=S)Nc2cc(OC)ccc2OC)cc1 | > 200 µM (inactive)
89 | O=C1C=C(NCc2ccccc2)c2ccccc2C1=O | > 200 µM (inactive)
90 | COC(=O)c1cccc(Cn2c(Cl)c(/C=N/NC(=O)c3ccccc3Cl)sc2=O)c1 | > 200 µM (inactive)
91 | Nc1c(C(=O)NCc2ccco2)c2nc3ccccc3nc2n1CCc1ccccc1 | > 200 µM (inactive)
92 | O=C(Nc1nc(-c2cc3ccccc3oc2=O)cs1)c1ccco1 | > 200 µM (inactive)
93 | COc1cc(NS(=O)(=O)c2ccc(NC(=S)NC(=O)/C=C/c3ccc(F)cc3)cc2)ncn1 | > 200 µM (inactive)
94 | COc1ccc(N=C2NC(=O)S/C2=C\c2ccc(N(C)C)cc2)cc1 | inactive
